Here are results for two compounds from PMC10610545, “Preclinical Evaluation of an Imidazole-Linked Heterocycle for Alzheimer’s Disease” (Pharmaceutics, 2023).

The structures appear in SMILES notation.

The target in test [1] is α2-adrenergic receptor (α2-AR). Put plainly: Competition binding against [3H]RX821002, membranes from post-mortem human frontal cortex. The text has this: The inhibition constant (Ki) for each compound was obtained and is expressed as the corresponding pKi. The selectivity for these two receptors was expressed by the I2/α2 index, calculated as the antilogarithm of the […] between pKi values for I2-IR and pKi values for α2-AR.
Preparation of cellular membranes.
Human brain samples were obtained at autopsy in the Basque Institute of Legal Medicine, Bilbao, Spain. Samples from the prefrontal cortex (Brodmann’s area 9) were dissected at the time of autopsy and immediately stored at -70 °C until assay. The study was developed in compliance with policies of research and ethical review boards for postmortem brain studies.
To obtain cellular membranes (P2 fraction) the different samples were homogenized using an ultraturrax in 10 volumes of homogenization buffer (0.25 M sucrose, 5 mM Tris–HCl, pH 7.4).
The crude homogenate was centrifuged for 5 min at 1000 g (4 °C) and the supernatant was centrifuged again for 10 min at 40,000 g (4 °C). The resultant pellet was washed twice in 5 volumes of homogenization buffer and recentrifuged in similar conditions. Protein content was measured according to the method of Bradford using BSA as standard.
Competition Binding Assays.
The pharmacological activity of the compounds was evaluated through competition binding studies against the I2-IR selective radioligand [3H]2-BFI or the α2-adrenergic receptor selective radioligand [3H]RX821002. Specific binding was measured in 0.25 mL aliquots (50 mM Tris-HCl, pH 7.5) containing 100 µg of membranes, which were incubated in 96-well plates either with […]
Incubations were terminated by separating free ligand from bound ligand by rapid filtration […]
counted for radioactivity by liquid scintillation spectrometry using a MicroBeta TriLux counter (PerkinElmer). Specific binding was determined and plotted as a function of the compound concentration. Nonspecific binding was determined in the presence of idazoxan (10–5 M), a compound with well stablished affinity for I2-IR and α2-adrenergic receptors, in [3H]2-BFI and [3H]RX821002 assays. To obtain the inhibition constant (Ki) analyses of competition experiments were performed by nonlinear regression using the GraphPad Prism program. Ki values were normalized to pKi values. I2-IR/α2 selectivity index was calculated as the antilogarithm of the difference between pKi values for I2-IR and pKi values for α2-ARs.

Test [2] has as its system 5XFAD mice. Put plainly: Novel object recognition test (NORT) in 5XFAD mice. Particulars: 2 mg/Kg in drinking water, 4 weeks, vs 5XFAD Control. Format: in vivo, mouse. As to the method:
(§1) Four-month-old female and male Wt and 5XFAD mice (n = 32) were used to carry out cognitive and molecular analyses. […] The animals had free access to food and water and were kept under standard temperature conditions (22 ± 2 °C) and 12 h/12 h light/dark cycles (300 lx/0 lx). […] After 4 weeks of treatment, cognitive tests, including short- and long-term memory and OLT, were performed to study the effects of treatment on learning and memory. Weight and water consumption were controlled each week, and the LSL33 concentration was adjusted accordingly to reach the optimal dose until euthanasia.
Short- and long-term recognition memories involving cortical areas and the hippocampus were evaluated by NORT. The experimental apparatus used for this test was a 90-degree, two-arm, 25-cm-long, 20-cm-high maze of black polyvinyl chloride. The light intensity in the middle of the field was 30 lux. First, mice were individually habituated to the apparatus for 10 min per day for 3 days. On day 4, the animals were allowed to freely explore two identical objects (A and A or B and B) placed at the end of each arm for a 10 min acquisition trial (first trial-familiarization). […] During the short-term memory retention test, the time that the animal spent exploring the new object (TN) and the old object (TO) was recorded. […] TN and TO were measured from the video recordings from each trial session. […]

For test [3], the system named is Ngf, Bdnf, Tnf-a, Il-6 gene expression. Put plainly: Real-time PCR gene expression in hippocampus of 5XFAD mice. Format: in vivo, mouse. Conditions: 2 mg/Kg. As to the method:
as §1
Three days after cognitive tests, mice were euthanized for protein extraction and RNA and DNA isolation. After euthanasia, the brains were immediately removed from the skulls, and the hippocampi were dissected, frozen, and maintained at −80 °C.
Total RNA isolation was carried out using TRIzol® reagent according to the manufacturer’s instructions. The yield, purity, and quality of RNA were determined spectrophotometrically with a NanoDrop™ ND-1000 apparatus (Thermo Scientific, Waltham, MA, USA) and an Agilent 2100B Bioanalyzer (Agilent Technologies, Santa Clara, CA, USA). RNA samples with 260/280 ratios and RNA integrity numbers (RINs) higher than 1.9 and 7.5, respectively, were selected. A reverse transcription-polymerase chain reaction (RT-PCR) was performed. Briefly, 2 μg of messenger RNA (mRNA) was reverse-transcribed using a high-capacity cDNA reverse transcription kit (Applied Biosystems, Foster City, CA, USA).
SYBR® Green real-time PCR was performed on a StepOnePlus Detection System (Applied Biosystems) with SYBR® Green PCR master mix (Applied Biosystems). Each reaction mixture contained 6.75 μL of complementary DNA (cDNA) (with a concentration of 2 μg), 0.75 μL of each primer (with a concentration of 100 nM), and 6.75 μL of SYBR® Green PCR master mix (2×).
The data were analyzed utilizing the comparative cycle threshold (Ct) (ΔΔCt) method, in which the levels of a housekeeping gene are used to normalize differences in sample loading and preparation. Normalization of expression levels was performed with β-actin for SYBR® Green-based real-time PCR. Each sample was analyzed in duplicate, and the results represent the n-fold differences in the transcript levels among different groups.
Figure 7 Results from an in vivo study of synaptic plasticity markers. (A) Representative protein levels and quantification by WB for PSD95. (B,C) Representative gene expression for Ngf and Bdnf Gene expression levels were determined by real-time PCR. The data correspond to the mean ± SEM (n = 3–5 mice per group). […]
Figure 8 Results from an in vivo study Neuroinflammatory markers. Representative gene expression for Tnf-a and Il-6 Gene expression levels were determined by real-time PCR. […]
For orientation: Quantitative PCR measures a nucleic acid by following its amplification.

The mark [4] stands for this setting: 5XFAD hippocampus, vs 5XFAD Control.

On to `Cl.c1ccc2sc(-c3ncc[nH]3)cc2c1` [LSL33, 2-(Benzo[b]thiophene-2-yl)-1H-imidazole hydrochloride], for which the “[3H]-RX821002 α2 pKi” value in test [1] stood at 4.70 ± 0.12. Besides, in test [2], the “NORT discrimination index, short- and long-term memory” value was “significant improvement in cognitive impairment in both short- and long-term memories”. In test [3] (setting [4]), the Il-6 gene expression entry is listed as “clear tendency to reduce both cytokines”, the Ngf gene expression entry is on record as “significant increase in Ngf gene expression” and the Tnf-a gene expression entry is “clear tendency to reduce both cytokines”. Also, in test [3] (both treated groups (Wt and 5XFAD)), the Bdnf gene expression result was “clear tendency to increase”.
As for `c1ccc2oc(-c3ncc[nH]3)cc2c1` [LSL60101, reference compound], the “[3H]-RX821002 α2 pKi” value in test [1] is on record as 3.18 ± 0.17.
